Test results as given in PubChem BioAssay (NCI).
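Following 48 hours of exposure in 96-well plates, responses at five concentrations were used to interpolate endpoints linearly. TGI: concentration producing complete growth inhibition.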

Experiments:
Assay in all cases: growth of human tumour cells (NCI), 48 h
[1] = system: 786-0 renal
[2] = system: A498 renal
[3] = system: A549 NSCLC
[4] = system: ACHN renal
[5] = system: BT-549 breast
[6] = system: CAKI-1 renal
[7] = system: CCRF-CEM leukemia
[8] = system: COLO 205 colon
[9] = system: DU-145 prostate
[10] = system: EKVX NSCLC
[11] = system: HCC-2998 colon
[12] = system: HCT-116 colon
[13] = system: HCT-15 colon
[14] = system: HL-60(TB) leukemia
[15] = system: HOP-62 NSCLC
[16] = system: HOP-92 NSCLC
[17] = system: HS 578T breast
[18] = system: HT29 colon
[19] = system: IGROV1 ovarian
[20] = system: K-562 leukemia
[21] = system: KM12 colon
[22] = system: LOX IMVI melanoma
[23] = system: M14 melanoma
[24] = system: MALME-3M melanoma
[25] = system: MCF7 breast
[26] = system: MDA-MB-231 breast
[27] = system: MDA-MB-435
[28] = system: MDA-N
[29] = system: MOLT-4 leukemia
[30] = system: NCI-H226 lung
[31] = system: NCI-H23 lung
[32] = system: NCI-H460 lung
[33] = system: NCI-H522 lung
[34] = system: NCI/ADR-RES ovarian
[35] = system: OVCAR-3 ovarian
[36] = system: OVCAR-4 ovarian
[37] = system: OVCAR-5 ovarian
[38] = system: OVCAR-8 ovarian
[39] = system: PC-3 prostate
[40] = system: RPMI-8226 leukemia
[41] = system: RXF 393 renal
[42] = system: SF-268 CNS
[43] = system: SF-295 CNS
[44] = system: SF-539 CNS
[45] = system: SK-MEL-2 melanoma
[46] = system: SK-MEL-28 melanoma
[47] = system: SK-MEL-5 melanoma
[48] = system: SK-OV-3 ovarian
[49] = system: SN12C renal
[50] = system: SNB-19 CNS
[51] = system: SNB-75 CNS
[52] = system: SR leukemia
[53] = system: SW-620 colon
[54] = system: T-47D breast
[55] = system: TK-10 renal
[56] = system: U251 CNS
[57] = system: UACC-257 melanoma
[58] = system: UACC-62 melanoma
[59] = system: UO-31 renal

CCC1CCC2C3CC=C4CC(OC(C)=O)C(N)CC4(C)C3CCC12C (centres undefined)
TGI [1]: 3.79 µM
TGI [2]: 9.63 µM
TGI [3]: 5.13 µM
TGI [4]: 17.6 µM
TGI [5]: 10.6 µM
TGI [6]: 22.9 µM
TGI [7]: 10 µM
TGI [8]: 10 µM
TGI [9]: 8.33 µM
TGI [10]: 13.8 µM
TGI [11]: 3.06 µM
TGI [12]: 6.14 µM
TGI [13]: 12.5 µM
TGI [14]: 4.48 µM
TGI [15]: 4.47 µM
TGI [16]: 10.8 µM
TGI [17]: 5.1 µM
TGI [18]: 6.32 µM
TGI [19]: 18.2 µM
TGI [20]: 4.91 µM
TGI [21]: 8.64 µM
TGI [22]: 4.12 µM
TGI [23]: 3.6 µM
TGI [24]: 8.33 µM
TGI [25]: 14 µM
TGI [26]: 4.09 µM
TGI [27]: 5.66 µM
TGI [28]: 6.92 µM
TGI [29]: 8.01 µM
TGI [30]: 39.7 µM
TGI [31]: 13.6 µM
TGI [32]: 3.53 µM
TGI [33]: 6.67 µM
TGI [34]: 14.2 µM
TGI [35]: 10.5 µM
TGI [36]: 18 µM
TGI [37]: 14.1 µM
TGI [38]: 6.75 µM
TGI [39]: 7.97 µM
TGI [40]: 8.3 µM
TGI [41]: 3.68 µM
TGI [42]: 9.08 µM
TGI [43]: 8.03 µM
TGI [44]: 3.5 µM
TGI [45]: 8.32 µM
TGI [46]: 10.4 µM
TGI [47]: 3.7 µM
TGI [48]: 24.1 µM
TGI [49]: 9.87 µM
TGI [50]: 6.49 µM
TGI [51]: 5.51 µM
TGI [52]: 6.07 µM
TGI [53]: 11.2 µM
TGI [54]: 12.6 µM
TGI [55]: 6.1 µM
TGI [56]: 3.68 µM
TGI [57]: 4.55 µM
TGI [58]: 9.32 µM
TGI [59]: 9.68 µM
